Results published in patent US9353051B2, “Antiviral drugs for treatment or prevention of dengue infection” (Siga Technologies Inc., priority 2007, dated 2016).

Tested on: Dengue-2 (Strain New Guinea C)
Assay: viral yield assay against Dengue-2 in Vero cells
Type: cell-based
Conditions: Dengue virus; Vero cells, MOI 0.1, harvested 48 hours post infection; read-out: Activity (anti-dengue 2 viral activity, EC50)
Protocol: Compounds that were active in the primary screen were also tested for activity in viral yield assays. […] Vero cells in 12-well plates were infected with dengue-2 virus at a multiplicity of infection (MOI) of 0.1, treated with compound (or DMSO as a control), incubated at 37° C., harvested 48 hours post infection and titered on Vero cells as described above. The EC50 was calculated through ExcelFit. Those compounds with activity below 1 μM are indicated with “A”, those with activity between 1 and 10 μM are indicated with “B”, those with activity between 10 and 25 μM with “C”, and those with activity above 25 μM are indicated with “D”.

Structure (SMILES)	EC50 [µM]
CCN(CC)S(=O)(=O)c1ccc(NC(=O)CNC(=O)c2ccc(C)cc2)cc1 [Compound 72, N-[(4-Diethylsulfamoyl-phenylcarbamoyl)-methyl]-4-methyl-benzamide]	> 25
CCN(CC)S(=O)(=O)c1ccc(NC(=O)CNC(=O)c2ccc(S(=O)(=O)NC(C)C)cc2)cc1 [Compound 73, N-[(4-Diethylsulfamoyl-phenylcarbamoyl)-methyl]-4-isopropylsulfamoyl-benzamide]	> 25
CCN(CC)S(=O)(=O)c1ccc(NC(=O)CNC(=O)c2ccc3ccccc3c2)cc1 [Compound 74, Naphthalene-2-carboxylic acid[(4-diethylsulfamoyl-phenylcarbamoyl)-methyl]-amide]	> 25
CCN(CC(=O)Nc1ccc(S(=O)(=O)N(CC)CC)cc1)Cc1nc2cc(Cl)ccc2c(=O)[nH]1 [Compound 75, 2-[(7-Chloro-4-oxo-3,4-dihydro-quinazolin-2-ylmethyl)-ethyl-amino]-N-(4-diethylsulfamoyl-phenyl)-acetamide]	> 25
CCN(CC)C(=O)c1ccc(NCC(=O)Nc2ccc(S(=O)(=O)N(CC)CC)cc2)cc1 [Compound 76, 4-{[(4-Diethylsulfamoyl-phenylcarbamoyl)-methyl]-amino}-N,N-diethyl-benzamide]	> 25
CCN(CC)S(=O)(=O)c1ccc(NC(=O)CCn2nnc3ccccc3c2=O)cc1 [Compound 77, N-(4-Diethylsulfamoyl-phenyl)-3-(4-oxo-4H-benzo[d][1,2,3]triazin-3-yl)-propionamide]	> 25
CCN(CC)S(=O)(=O)c1ccc(NC(=O)Cn2c(=O)n(CC)c(=O)c3ccccc32)cc1 [Compound 78, N-(4-Diethylsulfamoyl-phenyl)-2-(3-ethyl-2,4-dioxo-3,4-dihydro-2H-quinazolin-1-yl)-acetamide]	> 25
CCN(CC)S(=O)(=O)c1ccc(NC(=O)CNC(=O)c2ccc(OC)c(OC)c2)cc1 [Compound 79, N-[(4-Diethylsulfamoyl-phenylcarbamoyl)-methyl]-3,4-dimethoxy-benzamide]	> 25
CCN(CC)S(=O)(=O)c1ccc(NC(=O)CNC(=O)c2ccc(-c3ccccc3)cc2)cc1 [Compound 80, Biphenyl-4-carboxylic acid [(4-diethylsulfamoyl-phenylcarbamoyl)-methyl]-amide]	> 25
CCN(CC)S(=O)(=O)c1ccc(NC(=O)COC(=O)Cn2nnc3ccccc3c2=O)cc1 [Compound 81, (4-Oxo-4H-benzo[d][1,2,3]triazin-3-yl)-acetic acid (4-diethylsulfamoyl-phenylcarbamoyl)-methyl ester]	> 25
O=C(Cn1nnc2ccccc2c1=O)Nc1ccc(S(=O)(=O)N2CCOCC2)cc1 [Compound 82, N-[4-(Morpholine-4-sulfonyl)-phenyl]-2-(4-oxo-4H-benzo[d][1,2,3]triazin-3-yl)-acetamide]	> 25
CC(NS(=O)(=O)c1ccc(NC(=O)Cn2nnc3ccccc3c2=O)cc1)C1CC2CCC1C2 (centres unmarked) [Compound 83, N-[4-(1-Bicyclo[2.2.1]hept-2-yl-ethylsulfamoyl)-phenyl]-2-(4-oxo-4H-benzo[d][1,2,3]triazin-3-yl)-acetamide]	> 25
CON(C)S(=O)(=O)c1ccc(NC(=O)Cn2nnc3ccccc3c2=O)cc1 [Compound 84, N-[4-(Methoxy-methyl-sulfamoyl)-phenyl]-2-(4-oxo-4H-benzo[d][1,2,3]triazin-3-yl)-acetamide]	> 25
CN(C)S(=O)(=O)c1ccc(NC(=O)Cn2nnc3ccccc3c2=O)cc1 [Compound 85, N-(4-Dimethylsulfamoyl-phenyl)-2-(4-oxo-4H-benzo[d][1,2,3]triazin-3-yl)-acetamide]	> 25
CC(C)N(C)S(=O)(=O)c1ccc(NC(=O)Cn2nnc3ccccc3c2=O)cc1 [Compound 86, N-[4-(Isopropyl-methyl-sulfamoyl)-phenyl]-2-(4-oxo-4H-benzo[d][1,2,3]triazin-3-yl)-acetamide]	> 25
O=C(Cn1nnc2ccccc2c1=O)Nc1ccc(S(=O)(=O)N2CCCCC2)cc1 [Compound 87, 2-(4-Oxo-4H-benzo[d][1,2,3]triazin-3-yl)-N-[4-(piperidine-1-sulfonyl)-phenyl]-acetamide]	> 25
CCN(CC)S(=O)(=O)c1ccc(N(C)C)c(NC(=O)Cn2cnc3ccccc3c2=O)c1 [Compound 88, N-(5-Diethylsulfamoyl-2-dimethylamino-phenyl)-2-(4-oxo-4H-quinazolin-3-yl)-acetamide]	> 25
CCN(CC)S(=O)(=O)c1ccc(C)c(NC(=O)Cn2cnc3ccccc3c2=O)c1 [Compound 89, N-(5-Diethylsulfamoyl-2-methyl-phenyl)-2-(4-oxo-4H-quinazolin-3-yl)-acetamide]	> 25
CCN(CC)S(=O)(=O)c1cc(C)c(C)c(NC(=O)Cn2cnc3ccccc3c2=O)c1 [Compound 90, N-(5-Diethylsulfamoyl-2,3-dimethyl-phenyl)-2-(4-oxo-4H-quinazolin-3-yl)-acetamide]	> 25

Structure (SMILES)	EC50 [µM]
CCN(CC)S(=O)(=O)c1ccc(OC)c(NC(=O)Cn2cnc3ccccc3c2=O)c1 [Compound 91, N-(5-Diethylsulfamoyl-2-methoxy-phenyl)-2-(4-oxo-4H-quinazolin-3-yl)-acetamide]	> 25
CCOc1ccc(S(=O)(=O)N(CC)CC)cc1NC(=O)Cn1cnc2ccccc2c1=O [Compound 92, N-(5-Diethylsulfamoyl-2-ethoxy-phenyl)-2-(4-oxo-4H-quinazolin-3-yl)-acetamide]	> 25
CCN(CC)S(=O)(=O)c1ccc(Cl)c(NC(=O)Cn2cnc3ccccc3c2=O)c1 [Compound 93, N-(2-Chloro-5-diethylsulfamoyl-phenyl)-2-(4-oxo-4H-quinazolin-3-yl)-acetamide]	> 25
CCN(CC)S(=O)(=O)c1ccc(O)c(NC(=O)Cn2nnc3ccccc3c2=O)c1 [Compound 94, N-(5-Diethylsulfamoyl-2-hydroxy-phenyl)-2-(4-oxo-4H-benzo[d][1,2,3]triazin-3-yl)-acetamide]	> 25
CCN(CC)S(=O)(=O)c1ccc(C)c(NC(=O)Cn2nnc3ccccc3c2=O)c1 [Compound 95, N-(5-Diethylsulfamoyl-2-methyl-phenyl)-2-(4-oxo-4H-benzo[d][1,2,3]triazin-3-yl)-acetamide]	> 25
CCN(CC)S(=O)(=O)c1ccc2c(c1)CCN2Cc1nc2ccccc2c(=O)n1C [Compound 96, 1-(3-Methyl-4-oxo-3,4-dihydro-quinazolin-2-ylmethyl)-2,3-dihydro-1H-indole-5-sulfonic acid diethylamide]	> 25
CCN(CC)S(=O)(=O)c1ccc2c(c1)CCCN2C(=O)Cn1cnc2c(C)cccc2c1=O [Compound 97, 1-[2-(8-Methyl-4-oxo-4H-quinazolin-3-yl)-acetyl]-1,2,3,4-tetrahydro-quinoline-6-sulfonic acid diethylamide]	> 25
CN(Cc1ccccc1)S(=O)(=O)c1ccc(NC(=O)CCn2cnc3ccccc3c2=O)cc1 [Compound 98, N-[4-(Benzyl-methyl-sulfamoyl)-phenyl]-3-(4-oxo-4H-quinazolin-3-yl)-propionamide]	> 25
Cc1ccc(S(=O)(=O)Nc2ccc3ncn(Cc4ccccc4)c(=O)c3c2)cc1 [Compound 99, N-(3-Benzyl-4-oxo-3,4-dihydro-quinazolin-6-yl)-4-methyl-benzenesulfonamide]	> 25
Cc1nn(CC(=O)Nc2ccc(S(N)(=O)=O)cc2)c(=O)c2ccccc12 [Compound 100, 2-(4-Methyl-1-oxo-1H-phthalazin-2-yl)-N-(4-sulfamoyl-phenyl)-acetamide]	> 25
CCn1c(=O)c2ccccc2n(CC(=O)NCCc2ccc(S(N)(=O)=O)cc2)c1=O [Compound 101, 2-(3-Ethyl-2,4-dioxo-3,4-dihydro-2H-quinazolin-1-yl)-N-[2-(4-sulfamoyl-phenyl)-ethyl]-acetamide]	> 25
Cn1c(=O)c2ccccc2n(CC(=O)NCCc2ccc(S(N)(=O)=O)cc2)c1=O [Compound 102, 2-(3-Methyl-2,4-dioxo-3,4-dihydro-2H-quinazolin-1-yl)-N-[2-(4-sulfamoyl-phenyl)-ethyl]-acetamide]	> 25
CC(=O)NCCc1ccc(S(=O)(=O)Nc2ccc3ncn(C)c(=O)c3c2)cc1 [Compound 103, N-{2-[4-(3-Methyl-4-oxo-3,4-dihydro-quinazolin-6-ylsulfamoyl)-phenyl]-ethyl}-acetamide]	> 25
CC(=O)NCCc1ccc(S(=O)(=O)Nc2ccc3ncn(Cc4ccccc4)c(=O)c3c2)cc1 [Compound 104, N-{2-[4-(3-Benzyl-4-oxo-3,4-dihydro-quinazolin-6-ylsulfamoyl)-phenyl]-ethyl}-acetamide]	> 25
CCN(CC)S(=O)(=O)c1cc(NC(=O)Cn2cnc3ccccc3c2=O)ccc1C [Compound 105, N-(3-Diethylsulfamoyl-4-methyl-phenyl)-2-(4-oxo-4H-quinazolin-3-yl)-acetamide]	> 25
NS(=O)(=O)c1cccc(NC(=O)Cn2cnc3ccccc3c2=O)c1 [Compound 106, 2-(4-Oxo-4H-quinazolin-3-yl)-N-(3-sulfamoyl-phenyl)-acetamide]	> 25
CN(C)S(=O)(=O)c1cccc(NC(=O)Cn2cnc3ccccc3c2=O)c1 [Compound 107, N-(3-Dimethylsulfamoyl-phenyl)-2-(4-oxo-4H-quinazolin-3-yl)-acetamide]	> 25
NS(=O)(=O)c1ccc(NC(=O)Cn2nc(C(=O)O)c3ccccc3c2=O)cc1 [Compound 108, 4-Oxo-3-[(4-sulfamoyl-phenylcarbamoyl)-methyl]-3,4-dihydro-phthalazine-1-carboxylic acid]	> 25
NS(=O)(=O)c1ccc(NC(=O)CCc2nc3ccccc3c(=O)[nH]2)cc1 [Compound 109, 3-(4-Oxo-3,4-dihydro-quinazolin-2-yl)-N-(4-sulfamoyl-phenyl)-propionamide]	> 25
